For assay [1], the target named is T1, NLRP3 (Homo sapiens, UniProt Q96P20). The assay is described as follows: THP-1 cells pyroptosis assay. It is filed as cell-based. Also on record: Seed THP-1 cells (25,000 cells/well) containing 1.0 μg/ml LPS in 40 μl of RPMI medium; host or cells: THP-1 cells. Particulars: LPS 1 μg/ml, compound 3 hrs, nigericin 5 μM 1 hr, resazurin readout. Here is the method: THP-1 cells (ATCC #TIB-202) were grown in RPMI containing L-glutamine (Gibco #11835) supplemented with 1 mM sodium pyruvate (Sigma #S8636) and penicillin (100 units/ml)/streptomycin (0.1 mg/ml) (Sigma #P4333) in 10% Fetal Bovine Serum (FBS) (Sigma #F0804). The cells were routinely passaged and grown to confluency (˜10^6 cells/ml). On the day of the experiment, THP-1 cells were harvested and resuspended into RPMI medium (without FBS). The cells were then counted and viability ([…]) checked by Trypan blue (Sigma #T8154). Appropriate dilutions were made to give a concentration of 625,000 cells/ml. To this diluted cell solution was added LPS (Sigma #L4524) to give a 1 μg/ml Final Assay Concentration (FAC). 40 μl of the final preparation was aliquoted into each well of a 96-well plate. The plate thus prepared was used for compound screening.
The following method step-by-step assay was followed for compound screening. • 1. Seed THP-1 cells (25,000 cells/well) containing 1.0 μg/ml LPS in 40 μl of RPMI medium (without FBS) in 96-well, black walled, clear bottom cell culture plates coated with poly-D-lysine (VWR #734-0317) • 2. Add 5 μl compound (8 points half-log dilution, with 10 μM top dose) or vehicle (DMSO 0.1% FAC) to the appropriate wells • 3. Incubate for 3 hrs at 37° C., 5% CO2 • 4. Add 5 μl nigericin (Sigma #N7143) (FAC 5 μM) to all wells • 5. Incubate for 1 hr at 37° C., 5% CO2 • 6. At the end of the incubation period, spin plates at 300×g for 3 mins and remove supernatant • 7. Then add 50 μl of resazurin (Sigma #R7017) (FAC 100 μM resazurin in RPMI medium without FBS) and incubate plates for a further 1-2 hrs at 37° C. and 5% CO2 • 8. Plates were read in an Envision reader at Ex 560 nm and Em 590 nm • 9. IC50 data is fitted to a non-linear regression equation (log inhibitor vs response-variable slope 4-parameters)
(In general: The colour change of resazurin is a common sign of viable cells or microbes.)

In assay [2] the target is T1, NLRP3. The assay is described as follows: Human whole blood IL-1β release assay. Also on record: Plate out 80 μl of whole blood containing 1 μg/ml of LPS in 96-well, clear bottom cell culture plate; from tissue; host or cells: human whole blood from healthy donors. Particulars: LPS 1 μg/ml, compound 3 hrs, nigericin 10 μM 1 hr, IL-1β by AlphaLisa, read-out: HWB IC50. Type of assay: cell-based. How it is done:
For systemic delivery, the ability to inhibit NLRP3 when the compounds are present within the bloodstream is of great importance. For this reason, the NLRP3 inhibitory activity of a number of compounds in human whole blood was investigated in accordance with the following protocol.
Human whole blood in Li-heparin tubes was obtained from healthy donors from a volunteer donor panel. • 1. Plate out 80 μl of whole blood containing 1 μg/ml of LPS in 96-well, clear bottom cell culture plate (Corning #3585) • 2. Add 10 μl compound (8 points half-log dilution with 10 μM top dose) or vehicle (DMSO 0.1% FAC) to the appropriate wells • 3. Incubate for 3 hrs at 37° C., 5% CO2 • 4. Add 10 μl nigericin (Sigma #N7143) (10 μM FAC) to all wells • 5. Incubate for 1 hr at 37° C., 5% CO2 • 6. At the end of the incubation period, spin plates at 300×g for 5 mins to pellet cells and remove […] of supernatant and add to 96-well v-bottom plates for IL-1β analysis (note: these plates containing the supernatants can be stored at −80° C. to be analysed at a later date) • 7. IL-1β was measured according to the manufacturer protocol (Perkin Elmer-AlphaLisa IL-1 Kit AL220F-5000) • 8. IC50 data is fitted to a non-linear regression equation (log inhibitor vs response-variable slope 4-parameters)
(In Alpha technology, singlet oxygen from a donor bead excites a nearby acceptor bead.)

17 compounds from patent publication US20220289766A1 (INFLAZOME LIMITED, priority 2019, published 2022) can be followed below.

T1 sequence (Q96P20 whole entry): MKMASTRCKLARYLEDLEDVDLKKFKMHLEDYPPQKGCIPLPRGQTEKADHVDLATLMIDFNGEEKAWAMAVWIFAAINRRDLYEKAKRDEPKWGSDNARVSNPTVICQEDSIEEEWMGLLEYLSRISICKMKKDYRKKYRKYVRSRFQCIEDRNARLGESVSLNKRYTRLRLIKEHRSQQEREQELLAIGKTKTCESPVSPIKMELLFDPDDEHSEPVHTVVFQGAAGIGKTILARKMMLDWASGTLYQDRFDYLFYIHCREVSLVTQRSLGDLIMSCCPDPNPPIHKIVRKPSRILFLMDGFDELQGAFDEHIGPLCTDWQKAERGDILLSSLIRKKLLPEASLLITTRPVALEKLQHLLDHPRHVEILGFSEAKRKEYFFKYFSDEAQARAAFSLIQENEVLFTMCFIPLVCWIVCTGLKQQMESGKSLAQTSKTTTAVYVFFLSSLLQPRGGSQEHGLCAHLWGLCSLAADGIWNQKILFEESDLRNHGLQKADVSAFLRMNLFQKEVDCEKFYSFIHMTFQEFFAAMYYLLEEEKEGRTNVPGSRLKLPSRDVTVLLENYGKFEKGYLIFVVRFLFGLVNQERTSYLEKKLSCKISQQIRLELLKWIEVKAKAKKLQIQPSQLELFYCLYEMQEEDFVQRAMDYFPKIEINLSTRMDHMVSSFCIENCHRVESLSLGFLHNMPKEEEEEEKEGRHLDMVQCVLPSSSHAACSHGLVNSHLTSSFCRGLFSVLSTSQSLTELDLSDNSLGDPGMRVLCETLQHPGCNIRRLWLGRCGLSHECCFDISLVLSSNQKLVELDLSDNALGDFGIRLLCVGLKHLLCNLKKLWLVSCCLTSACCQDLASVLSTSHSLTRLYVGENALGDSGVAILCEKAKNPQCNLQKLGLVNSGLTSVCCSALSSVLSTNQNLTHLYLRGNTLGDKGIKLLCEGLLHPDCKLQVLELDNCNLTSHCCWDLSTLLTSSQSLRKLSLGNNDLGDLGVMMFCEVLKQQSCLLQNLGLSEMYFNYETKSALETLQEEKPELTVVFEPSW

As for `O=C1Nc2c(ccc3c2CCC3)-c2ccnc(c2)O[C@H]2COC[C@@H]2n2ccc(n2)S(=O)(=O)N1` (racemic) [Example 35, (anti)-21,24-dioxa-14λ^6-thia-11,13,18,26,30-pentaazahexacyclo-[23.3.1.1^15,18.0^2,10.0^5,9.0^19,23]-triaconta-1(28),2,4,9,15(30),16,25(29),26-octaene-12,14,14-trione], the IC50 (commonly the concentration needed to halve the response being measured) in assay [1] was no more than 0.1 µM; in assay [2] it was 0.1 to 0.5 µM.

Turning to `O=C1Nc2c3c(cc4c2C(CCCCCCn2ccc(n2)S(=O)(=O)N1)CC4)CCC3` (racemic) [Example 48, 5λ^6-thia-2,4,9,27-tetraazapentacyclo[14.9.1.1^6,9.0^19,26.0^21,25]heptacosa-1(25),6(27),7,19(26),20-pentaene-3,5,5-trione], the IC50 in assay [1] fell in the range of 1 to 5 µM; in assay [2] it was 5 to 10 µM.

On to `O=C1Nc2c3c(cc4c2C(CCCCn2ccc(n2)S(=O)(=O)N1)CC4)CCC3` (racemic) [Example 49, 10λ^6-thia-6,11,13,25-tetraazapentacyclo[12.9.1.1^6,9.0^15,19.0^21,24]pentacosa-7,9(25),14,19,21(24)-pentaene-10,10,12-trione], for which the IC50 in assay [1] lay in the range of 1 to 5 µM.

For the compound `O=C1Nc2c3c(cc4c2C(CCCCCn2ccc(n2)S(=O)(=O)N1)CC4)CCC3` (racemic) [Example 50, 5λ^6-thia-2,4,9,26-tetraazapentacyclo[13.9.1.1^6,9.0^18,25.0^20,24]hexacosa-1(24),6(26),7,18(25),19-pentaene-3,5,5-trione], the half-maximal inhibitory concentration (IC50) in assay [1] is 0.1 to 0.5 µM; in assay [2] it was 1 to 5 µM.

In the case of `O=C1Nc2c(ccc3c2CCC3)-c2ccnc(c2)OCCCCCn2ccc(n2)S(=O)(=O)N1` [Example 1, 24-Oxa-14λ^6-thia-11,13,18,26,30-pentaazapentacyclo-[23.3.1.1^15,18.0^2,10.0^5,9]-triaconta-1(29),2(10),3,5(9),15(30),16,25,27-octaene-12,14,14-trione], the IC50 in assay [1] lay in the range of 0.1 to 0.5 µM; in assay [2], 1 to 5 µM.

As to `Cc1cc2c(c3c1-c1ccnc(c1)OCCCCCn1ccc(n1)S(=O)(=O)NC(=O)N3)CCC2` [Example 2, 3-methyl-24-oxa-14λ^6-thia-11,13,18,26,30-pentaaza-pentacyclo[23.3.1.1^15,18.0^2,10.0^5,9]-triaconta-1(29),2(10),3,5(9),15(30), 16,25,27-octaene-12,14,14-trione], the IC50 was no more than 0.1 µM in assay [1] and 0.5 to 1 µM in assay [2].

In the case of `O=C1Nc2c(ccc3c2CCC3)-c2ccnc(c2)OCCOCCn2ccc(n2)S(=O)(=O)N1` [Example 3, 21,24-dioxa-14λ^6-thia-11,13,18,26,30-pentaazapentacyclo-[23.3.1.1^15,18.0^2,10.0^5,9]triaconta-1(29),2(10),3,5(9),15(30),16,25,27-octaene-12,14,14-trione], the IC50 in assay [1] and in assay [2] was 0.1 to 0.5 µM in each case.

As to `O=C1Nc2c(ccc3c2CCC3)-c2ccnc(c2)OCCCCn2ccc(n2)S(=O)(=O)N1` [Example 4, 23-oxa-14λ^6-thia-11,13,18,25,29-pentaazapentacyclo-[22.3.1.1^15,18.0^2,10.0^5,9]nonacosa-1(28),2(10),3,5(9),15(29),16,24,26-octaene-12,14,14-trione], the IC50 fell in the range of 0.1 to 0.5 µM in assay [1] and 0.5 to 1 µM in assay [2].

As to `O=C1Nc2c(ccc3c2CCC3)-c2ccnc(c2)OCCCCCCn2ccc(n2)S(=O)(=O)N1` [Example 5, 25-oxa-14λ^6-thia-11,13,18,27,31-pentaazapentacyclo-[24.3.1.1^15,18.0^2,10.0^5,9]hentriaconta-1(30),2(10),3,5(9),15(31),16,26,28-octaene-12,14,14-trione], the IC50 in assay [1] lay in the range of 0.1 to 0.5 µM; in assay [2], 1 to 5 µM.

On to `O=C1Nc2c(ccc3c2CCC3)-c2ccnc(c2)OCCCCCn2cc(cn2)S(=O)(=O)N1` [Example 6, 24-oxa-14λ^6-thia-11,13,17,18,26-pentaazapentacyclo-[23.3.1.1^15,18.0^2,10.0^5,9]triaconta-1(28),2,4,9,15(30),16,25(29),26-octaene-12,14,14-trione], for which the IC50 in assay [1] was 0.1 to 0.5 µM; in assay [2], 1 to 5 µM.

Turning to `O=C1Nc2c(ccc3c2CCC3)-c2ccnc(c2)OCCCn2ccc(n2)S(=O)(=O)N1` [Example 7, 22-oxa-14λ^6-thia-11,13,18,24,28-pentaazapentacyclo-[21.3.1.1^15,18.0^2,10.0^5,9]octacosa-1(26),2,4,9,15(28),16,23(27),24-octaene-12,14,14-trione], the IC50 in assay [1] and in assay [2] was 0.5 to 1 µM each time.

In the case of `CN1CCOc2cc(ccn2)-c2ccc3c(c2NC(=O)NS(=O)(=O)c2ccn(n2)CC1)CCC3` [Example 8, 21-methyl-24-oxa-14λ^6-thia-11,13,18,21,26,30-hexaazapentacyclo-[23.3.1.1^15,18.0^2,10.0^5,9]triaconta-1(28),2,4,9,15(30),16,25(29),26-octaene-12,14,14-trione], the IC50 in assay [1] and in assay [2] was 0.5 to 1 µM each time.

As for `O=C1Nc2c(ccc3c2CCC3)-c2cccc(c2)OCCCCCn2ccc(n2)S(=O)(=O)N1` [Example 9, 24-oxa-14λ^6-thia-11,13,18,30-tetraazapentacyclo-[23.3.1.1^15,18.0^2,10.0^5,9]triaconta-1(28),2,4,9,15(30),16,25(29),26-octaene-12,14,14-trione], the IC50 in assay [1] lay in the range of 0.5 to 1 µM; in assay [2] it was 1 to 5 µM.

As for `CC(C)c1cc(F)cc2c1NC(=O)NS(=O)(=O)c1ccn(n1)CCCCCOc1cc-2ccn1` [Example 10, 4-fluoro-6-(propan-2-yl)-21-oxa-11λ^6-thia-8,10,15,23,27-pentaazatetracyclo-[20.3.1.1^12,15.0^2,7]heptacosa-1(25),2(7),3,5,12(27),13,22(26),23-octaene-9,11,11-trione], the IC50 in assay [1] was 0.5 to 1 µM; in assay [2], 1 to 5 µM.

Turning to `CC1(C)COc2cc(ccn2)-c2ccc3c(c2NC(=O)NS(=O)(=O)c2ccn1n2)CCC3` [Example 11, 19,19-dimethyl-21-oxa-14λ^6-thia-11,13,18,23,27-pentaaza-pentacyclo[20.3.1.1^15,18.0^2,10.0^5,9]-heptacosa-1(25),2,4,9,15(27),16,22(26),23-octaene-12,14,14-trione], the IC50 in assay [1] and in assay [2] was 0.1 to 0.5 µM each time.

As for `O=C1Nc2c(ccc3c2CCC3)-c2ccnc(c2)OCc2cc(nn2C2CC2)S(=O)(=O)N1` [Example 16, 17-cyclopropyl-20-oxa-14λ^6-thia-11,13,16,17,22-pentaazapentacyclo-[19.3.1.1^15,18.0^2,10.0^5,9]hexacosa-1(24),2,4,9,15,18(26),21(25),22-octaene-12,14,14-trione], the IC50 in assay [1] was in the range of 1 to 5 µM.

As for `O=C1Nc2c(ccc3c2CCC3)-c2cccc(c2)OCCCn2ccc(n2)S(=O)(=O)N1` [Example 21, 22-oxa-14λ^6-thia-11,13,18,28-tetraazapentacyclo-[21.3.1.1^15,18.0^2,10.0^5,9]-octacosa-1(26),2,4,9,15(28),16,23(27),24-octaene-12,14,14-trione], the IC50 in assay [1] is 1 to 5 µM.
